How the values were obtained:
[1] = tested on: isolated rabbit atrium; test: Isolated rabbit atrium, increase in functional refractory period (antiarrhythmic); conditions: Oryctolagus cuniculus; 10^-5 molar
Procedure: The compounds of the invention are useful as antiarrhythmic agents because of their ability to alleviate cardiac arrhythmias. […] 198] wherein the compounds effect an increase in the functional refractory period. Compounds are dissolved in Krebs-Henseleit solution, and the percent change in the functional refractory period is monitored with an oscilloscope. […] Similarly at a concentration of 10^-^6 molar 1-(3-dimethylaminopropyl)-2-(p-bromophenyl)-4,5,6,7-tetrahydroindole hydrochloride and 1-(2-methylaminoethyl)-2-phenyl-1,4,5,6,7,8-hexahydrocyclohepta[b]pyrrole hydrochloride each effect a 150% increase in the functional refractory period.

[2] = tested on: central nervous system; test: Mouse observation procedure of S. Irwin, central nervous system depressant effects (tranquilizer); type: in vivo; conditions: male COBS mice, behavior and reflex depression, muscle relaxation, read-out: minimum effective dose (MED)/Kilogram of body weight
Procedure: The compounds of the invention are useful as tranquilizers because of their depressant effects on the central nervous system. The depressant effects on the central nervous system were evaluated according to the mouse observation procedure of S. Irwin, Psychopharmacologia, 13, 222 (1968). Male COBS mice are dosed with the drug, and its effects on behavior and reflex depression together with muscle relaxation determined by the degree of deviation from control scores, with activity expressed in terms of minimum effective dose (MED). The effectiveness of compounds of the invention as tranquilizers is illustrated in Table I below.

[3] = tested on: carrageenin-induced rat paw edema; test: Carrageenin-induced rat paw edema antiinflammatory assay; type: in vivo; conditions: 200 mg/kg of body weight
Description: The compounds of this invention are useful as antiinflammatory agents because of their ability to suppress inflammation in mammals. […] Exp. Biol. Med. III, 544 (1962)].

[4] = tested on: spontaneous hypertensive rat; test: Lowering of blood pressure in the spontaneous hypertensive rat, indirect tail cuff method; type: in vivo; conditions: 100 mg/kg of body weight
Procedure: The compounds of this invention are also useful as antihypertensive agents because of their ability to lower blood pressure in mammals. […] 135. For example, at a dose of 100 mg/kg of body weight, the compounds shown in Table III below effect the corresponding decrease in systolic blood pressure.

Structure (SMILES)	activation at 10 µM [1]	minimal effective dose [2]	inhibition in vivo at 200 mg/kg [3]	decrease in systolic blood pressure [4]
CCN(CC)CCCn1c(-c2ccccc2)cc2c1CCCCC2.Cl [Example 41, 1-(3-diethylaminopropyl)-2-phenyl-1,4,5,6,7,8-hexahydrocyclohepta[b]pyrrole hydrochloride]	264%	50 mg/kg	50%	49 mm Hg
CN(C)CCCn1c(-c2ccccc2)cc2c1CCCCC2.Cl [Example 40, 1-(3-dimethylaminopropyl)-2-phenyl-1,4,5,6,7,8-hexahydrocyclohepta[b]pyrrole hydrochloride]	275%	25 mg/kg	–	50 mm Hg
